Laboratory results published in patent US8278282B2, “Nucleoside analogs for treatment of viral infections” (Novartis AG, priority 2007, dated 2012).

Key:
[1] = system: dengue virus serotype 1; assay: microbe, parasite or virus in culture; type: cell-based
[2] = system: dengue virus serotype 4; assay: microbe, parasite or virus in culture; type: cell-based
[3] = system: West Nile virus; assay: microbe, parasite or virus in culture; type: cell-based
[4] = system: Japanese encephalitis virus; assay: microbe, parasite or virus in culture; type: cell-based
[5] = system: yellow fever virus; assay: microbe, parasite or virus in culture; type: cell-based
[6] = system: HCV replicon; assay: Cell-based HCV replicon assay; conditions: Hepatitis C virus
[7] = system: TSV01 dengue virus 2; assay: Mouse model of dengue infection (viremia by plaque assay); conditions: 25 mg/kg bid, compared to the control group
[8] = system: dengue virus serotype 2; assay: microbe, parasite or virus in culture; type: cell-based

| Structure (SMILES) | EC50 [1] [nM] | EC50 [2] [nM] | EC50 [3] [nM] | EC50 [4] [nM] | EC50 [5] [nM] | EC50 [6] [nM] | reduction in viremia [7] | EC50 [8] [nM] |
| --- | --- | --- | --- | --- | --- | --- | --- | --- |
| C#C[C@@]1(O)[C@H](O)[C@@H](CO)O[C@H]1n1ccc2c(N)ncnc21 [Example 1, (2R,3R,4R,5R)-2-(4-Amino-pyrrolo[2,3-d]pyrimidin-7-yl)-3-ethynyl-5-hydroxymethyl-tetrahydrofuran-3,4-diol] | ~200 | ~200 | ~3750 | ~1300 | ~900 | ~100 | about 20 fold |  |
| C#C[C@@]1(O)[C@H](O)[C@@H](CO)O[C@H]1n1cc(F)c2c(N)ncnc21 [Example 4, (2R,3R,4R,5R)-2-(4-Amino-5-fluoro-pyrrolo[2,3-d]pyrimidin-7-yl)-3-ethynyl-5-hydroxymethyl-tetrahydrofuran-3,4-diol] |  |  |  |  |  |  |  | ~400 |
| C#Cc1cn([C@@H]2O[C@H](CO)[C@@H](O)[C@]2(O)C#C)c2ncnc(N)c12 [Example 8, (2R,3R,4R,5R)-2-(4-Amino-5-ethynyl-pyrrolo[2,3-d]pyrimidin-7-yl)-3-ethynyl-5-hydroxymethyl-tetrahydro-furan-3,4-diol] |  |  |  |  |  |  |  | ~600 |
